Where two headings read alike, the source gives them in different places.
Legend:
ovine COX-1 = molecular target: T1, ovine COX-1 (Ovis aries, UniProt P05979); assay: COX-1 inhibition, ELISA kit; assay type: biochemical; settings: average of three determinations
T1 construct: purchased Cayman Chemical Item No. 560131
T1 sequence (P05979 25-600): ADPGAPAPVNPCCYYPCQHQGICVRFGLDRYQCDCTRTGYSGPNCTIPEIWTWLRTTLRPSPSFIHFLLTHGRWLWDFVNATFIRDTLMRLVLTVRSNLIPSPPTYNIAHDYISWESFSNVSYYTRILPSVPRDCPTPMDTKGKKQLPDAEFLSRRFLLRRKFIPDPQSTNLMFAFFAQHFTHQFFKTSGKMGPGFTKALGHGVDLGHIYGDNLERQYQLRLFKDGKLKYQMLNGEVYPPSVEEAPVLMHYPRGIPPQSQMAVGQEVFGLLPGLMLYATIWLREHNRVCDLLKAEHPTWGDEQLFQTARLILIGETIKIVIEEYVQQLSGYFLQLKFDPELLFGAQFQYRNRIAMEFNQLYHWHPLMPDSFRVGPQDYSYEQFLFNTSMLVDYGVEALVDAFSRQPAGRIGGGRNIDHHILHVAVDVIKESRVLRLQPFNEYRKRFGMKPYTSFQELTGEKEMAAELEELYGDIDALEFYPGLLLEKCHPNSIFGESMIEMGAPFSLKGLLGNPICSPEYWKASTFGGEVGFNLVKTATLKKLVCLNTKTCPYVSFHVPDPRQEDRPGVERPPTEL
Method: (§1) The compounds’ abilities were evaluated in vitro to inhibit ovine COX-1 and human recombinant COX-2 isozymes using ELISA [46].

human recombinant COX-2 = molecular target: T2, human recombinant COX-2 (Homo sapiens, UniProt P35354); assay: COX-2 inhibition, ELISA kit; assay type: biochemical
T2 construct: purchased Cayman Chemical Item No. 560131
T2 sequence (P35354 18-604): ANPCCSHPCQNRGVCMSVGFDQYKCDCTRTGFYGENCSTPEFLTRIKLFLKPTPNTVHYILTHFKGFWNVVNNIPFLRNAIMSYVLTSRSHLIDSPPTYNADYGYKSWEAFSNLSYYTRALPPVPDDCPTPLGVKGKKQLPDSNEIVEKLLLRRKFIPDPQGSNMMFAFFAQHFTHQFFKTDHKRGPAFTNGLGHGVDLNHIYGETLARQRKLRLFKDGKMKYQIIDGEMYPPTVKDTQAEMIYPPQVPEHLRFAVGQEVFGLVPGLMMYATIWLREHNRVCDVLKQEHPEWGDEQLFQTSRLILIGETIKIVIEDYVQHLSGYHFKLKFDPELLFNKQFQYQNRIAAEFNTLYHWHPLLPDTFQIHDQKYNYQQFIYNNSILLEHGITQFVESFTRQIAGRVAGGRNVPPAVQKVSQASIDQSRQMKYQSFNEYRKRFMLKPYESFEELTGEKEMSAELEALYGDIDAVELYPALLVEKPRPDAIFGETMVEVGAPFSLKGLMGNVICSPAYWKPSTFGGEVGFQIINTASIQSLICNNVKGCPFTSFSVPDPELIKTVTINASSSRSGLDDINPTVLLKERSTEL
Method: as §1

COX-1 = assay: Western blotting of COX-1
fibroblast cells = assay: MTT test, cytotoxicity; assay type: cell-based; settings: 24 h, read-out: IC50 against fibroblast cells
Method: The cytotoxicity of the IA was investigated during 24 h at various concentrations against fibroblast cell lines using the MTT test. […].
The MTT Reagent was purchased from Biospes (Biospes, China, Cat n#BAR1005-1), and used according to the manufacturer’s instructions. Twenty-four hours prior to the MTT experiment, breast cancer cell lines (MCF-7 Cell Line) were seeded at a concentration of 5 × 10^4 cells per well in 96-well microplates to facilitate microplate adherence. Various agent concentrations were administered to the cultured cells. The cells were treated with 10 μL of MTT solution, and 100 μL of serum-free medium was added to every well. The plate was kept at 37 °C for 4 h in a CO2 incubator. Then, each well received 100 μL of formazan diluent buffer. The plate was incubated at 37 °C for the entire night after being wrapped in foil and given a 15-min orbital shake. An ELISA plate reader (Stat Fax 2200, Awareness Technologies, Palm City, FL, USA) was used to measure color absorbance in the OD range of 450–630 nm.
For every sample, the mean of the three readings was computed. Cell survival was calculated at the very end using the following equation:(1) % of cell viability= Asample/Acontrol×100
Acontrol is the absorbance of the cell culture after treatment with formazan buffer and MTT without added any drug. […]

[1] = Solubility in different solvents; assay type: physicochemical; settings: qualitative

Row | IC50 (ovine COX-1) [µM] | COX-2 S.I. (human recombinant COX-2; Selectivity index (COX-1 IC50/COX-2 IC50)) | IC50 (human recombinant COX-2; average of three determinations) [µM] | Solubility in solvents [1] | melting point [°C] | SMILES | IC50 (COX-1) [µM] | IC50 (fibroblast cells; MTT test) [µM] | IC50 (fibroblast cells) [µM]
1 | 10.2 | 2.8 | 3.6 | soluble in alcohols, DMSO, and DMF | 135 | CC(=O)CC(C)=NNC(=O)C(C)c1ccc(CC(C)C)cc1 (stereo not drawn) [IA, (E)-2-(4-isobutylphenyl)-N′-(4-oxopentan-2-ylidene) propane hydrazide] | 0.946 | 3.43 | –
2 | – | – | – | – | – | CC(C)Cc1ccc(C(C)C(=O)O)cc1 (stereo not drawn) [Ibuprofen, reference compound] | […] | – | 31.4
